Measured values reported in patent publication US7863285B2, “Purinone derivatives as HM74A agonists” (Incyte Corporation, priority 2006, dated 2011).

Legend:
human HM74a [1] = biological target: T1, human HM74a (Homo sapiens, UniProt Q8TDS4); test: GTPγS recruitment assay; type: biochemical; set-up: expressed in transfected cells; host or cells: HEK293 cells, transient transfection, membrane preparation; details: membranes of HEK293 cells transfected with human HM74a and Gα0; 35S GTPγS
Description: Membranes were prepared from HEK293 cells transiently transfected with human HM74a and Gα0 protein. Assays were performed in 384-well format in a volume of 50 μL per assay point. Serial dilutions of compounds were prepared in the assay buffer (20 mM HEPES pH. 7.4, 100 mM NaCl, 10 mM MgCl2, 10 mg/L saponin and 10 μM GDP) and mixed with membranes (2 μg per assay point) and ^35S GTPγS (Amersham, 0.3 nM) in the assay buffer. The mixtures were incubated at room temperature for 30 min and wheat germ agglutinin SPA beads (Amersham) (0.2 mg per assay point) in the assay buffer were added. After 30 min incubation with agitation, plates were centrifuged at 1500 g for 5 min and bound ^35S GTPγS was determined by counting on a TopCount scintillation counter.
Target sequence in this assay (Q8TDS4 whole entry): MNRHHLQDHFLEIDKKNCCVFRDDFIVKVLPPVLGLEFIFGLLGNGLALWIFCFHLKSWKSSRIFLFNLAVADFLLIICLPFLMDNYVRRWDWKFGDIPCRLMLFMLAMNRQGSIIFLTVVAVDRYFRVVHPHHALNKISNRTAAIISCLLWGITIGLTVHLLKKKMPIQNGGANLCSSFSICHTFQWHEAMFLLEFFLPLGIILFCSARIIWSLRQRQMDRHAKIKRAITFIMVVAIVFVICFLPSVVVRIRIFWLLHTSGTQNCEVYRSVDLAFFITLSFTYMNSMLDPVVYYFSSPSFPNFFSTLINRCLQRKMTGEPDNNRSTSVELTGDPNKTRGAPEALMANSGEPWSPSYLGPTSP
Target sequence in this assay (P09471 2-354 partner limits assumed): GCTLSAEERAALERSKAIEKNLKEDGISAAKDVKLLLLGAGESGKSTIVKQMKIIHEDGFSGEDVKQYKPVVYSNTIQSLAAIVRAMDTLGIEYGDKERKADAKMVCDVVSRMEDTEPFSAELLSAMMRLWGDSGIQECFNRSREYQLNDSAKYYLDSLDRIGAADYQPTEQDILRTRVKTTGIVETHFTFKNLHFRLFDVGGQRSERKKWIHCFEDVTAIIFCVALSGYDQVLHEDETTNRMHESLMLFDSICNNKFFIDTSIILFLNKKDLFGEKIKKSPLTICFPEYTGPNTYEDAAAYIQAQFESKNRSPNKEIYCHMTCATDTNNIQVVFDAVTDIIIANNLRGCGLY
Target sequence in this assay (P62873 2-340 partner limits assumed): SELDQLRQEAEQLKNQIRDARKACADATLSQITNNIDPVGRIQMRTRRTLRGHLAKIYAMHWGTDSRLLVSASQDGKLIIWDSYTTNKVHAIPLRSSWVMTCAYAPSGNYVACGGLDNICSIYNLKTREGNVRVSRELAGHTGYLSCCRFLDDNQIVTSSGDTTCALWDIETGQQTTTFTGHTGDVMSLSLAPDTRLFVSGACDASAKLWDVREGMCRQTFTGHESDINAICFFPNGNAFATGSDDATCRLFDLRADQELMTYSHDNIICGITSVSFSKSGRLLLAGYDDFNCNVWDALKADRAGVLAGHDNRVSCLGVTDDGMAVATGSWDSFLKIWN
Target sequence in this assay (P59768 2-68 partner limits assumed): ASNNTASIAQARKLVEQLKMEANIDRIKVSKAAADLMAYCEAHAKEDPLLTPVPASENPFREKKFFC

mature adipocytes = test: Adipocyte lipolysis assay; type: cell-based; details: glycerol in supernatants after overnight culture with IBMX (100 μM)
Description: Preadipocytes purchased from Zen Bio were plated at 8.7×10^4 cells/well in 96-well plates, differentiated for 14 days and mature adipocytes assayed during days 15 through 21. Adipocyte maturation is assessed by the presence of rounded cells with large lipid droplets in the cytoplasm. Following maturation, cells were washed and incubated overnight with IBMX (100 μM) and various concentrations of compound diluted in assay buffer containing a final DMSO concentration of 0.1%. After overnight culture, the glycerol concentration in the supernatants was determined with the Lipolysis Assay Kit purchased from Zen-Bio. Absorbance at 540 nm is directly proportional to the glycerol concentration in the sample. IC50 determinations were based on compound inhibition relative to DMSO controls. […] For example, the compound of Example 1 has an IC50 of 100 nM in this assay.

human HM74a [2] = biological target: T1, human HM74a; test: cAMP assay; type: cell-based; set-up: expressed in transfected cells; details: CHO cells stably transfected with human HM74a; 5 μM forskolin; inhibition relative to DMSO controls
Description: CHO cells stably transfected with human HM74a were seeded at 7,500 cells/well in a 96-well plate in HAMS F12 medium with 10% FBS. The plate was incubated overnight at 37° C. and 5% CO2. The test compounds were prepared in a stimulation buffer containing 1×HANKS, 20 mM HEPES, 5 μM forskolin, and 0.25 mM IBMX. The media from the cell plate was removed before adding 30 μL of the test compounds. After 30 minute incubation at 37° C. and 5% CO2, the cAMP level was assayed using HitHunter cAMP XS assay kit (DiscoverX, CA). IC50 determinations were based on compound inhibition relative to DMSO controls.
Target sequence in this assay (Q8TDS4 whole entry): as the sequence (Q8TDS4 whole entry) above

[3] = clinical, cited from earlier work; for lowering of plasma LDL: monotherapy

Structure (SMILES) | EC50 (human HM74a [1]) | IC50 (mature adipocytes) | IC50 (human HM74a [2]) | lowering of plasma LDL [3] | decrease of plasma triglycerides [3] | raising HDL levels [3]
CCCCCn1c(=O)n2cnnc2c2[nH]c(C(F)(F)F)nc21 [Example 1, 6-pentyl-8-(trifluoromethyl)-6,9-dihydro-5H-[1,2,4]triazolo[3,4-i]purin-5-one] | 61 nM | 100 nM | 20 nM |  |  | 
O=C1[C@H](CC[C@H](O)c2ccc(F)cc2)[C@@H](c2ccc(O)cc2)N1c1ccc(F)cc1 [Ezetimibe] |  |  |  | 20% |  | 
O=C(O)c1cccnc1 [Nicotinic acid, nicotinic acid] |  |  |  | 16% | 38% | 20-30%
